Assay results as given in PubChem BioAssay AID330 (DTP/NCI, 2004).
Values joined by “and” are separate entries in the source; they are usually repeats but may differ in a detail not shown here. Equal entries are not always repeated. Inconclusive results and toxic doses are left out. Rule for the calls: active = survival T/C of 150% or more; inactive = T/C below 125% in these data.

System: P388 leukemia ip, CD2F1 mice, survival T/C
Assay: NCI In Vivo Anticancer Drug Screen. Data for tumor model P388 Leukemia (intraperitoneal) in CD2F1 (CDF1) mice
Conditions: endpoint: median survival time, higher = longer survival
Procedure, shortened: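 Mice carrying the transplanted tumor received test compound or vehicle. Survival was recorded in each group, and the value is the treated-group measurement divided by that of the vehicle-treated control group.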

[1] = dose: 50.0 mg/kg/injection, schedule: Q01DX009 (ip), vehicle: Klucel (hydroxypropylcellulose) (HPC)
[2] = dose: 100.0 mg/kg/injection, schedule: Q01DX009 (ip), vehicle: Klucel (hydroxypropylcellulose) (HPC)
[3] = dose: 200.0 mg/kg/injection, schedule: Q01DX009 (ip), vehicle: Klucel (hydroxypropylcellulose) (HPC)
[4] = dose: 60.0 mg/kg/injection, schedule: Q01DX005 (ip), vehicle: saline with Tween-80
[5] = dose: 120.0 mg/kg/injection, schedule: Q01DX005 (ip), vehicle: saline with Tween-80
[6] = dose: 240.0 mg/kg/injection, schedule: Q01DX005 (ip), vehicle: saline with Tween-80
[7] = dose: 50.0 mg/kg/injection, schedule: Q01DX005 (ip), vehicle: Klucel (hydroxypropylcellulose) (HPC)
[8] = dose: 100.0 mg/kg/injection, schedule: Q01DX005 (ip), vehicle: Klucel (hydroxypropylcellulose) (HPC)
[9] = dose: 200.0 mg/kg/injection, schedule: Q01DX005 (ip), vehicle: Klucel (hydroxypropylcellulose) (HPC)
[10] = dose: 25.0 mg/kg/injection, schedule: Q01DX009 (ip), vehicle: saline with Tween-80
[11] = dose: 50.0 mg/kg/injection, schedule: Q01DX009 (ip), vehicle: saline with Tween-80
[12] = dose: 100.0 mg/kg/injection, schedule: Q01DX009 (ip), vehicle: saline with Tween-80
[13] = dose: 50.0 mg/kg/injection, schedule: Q01DX009 (ip), vehicle: suspension in saline
[14] = dose: 25.0 mg/kg/injection, schedule: Q01DX009 (ip), vehicle: saline
[15] = dose: 50.0 mg/kg/injection, schedule: Q01DX009 (ip), vehicle: saline

Measured: T/C

CC(/C=N/N=C1\C(=O)Nc2ccccc21)=C\c1ccccc1
inactive: [1] 95 % of control | [2] 94 % of control | [3] 100 % of control

OCCN(CO)CCO
inactive: [4] 117 % of control | [5] 123 % of control | [6] 115 % of control

CCC1=NO[C@@H](C(=O)OCc2ccccc2)[C@H]1C
inactive: [4] 113 % of control | [5] 103 % of control | [6] 95 % of control

N#CC(=Nc1ccc2ccccc2c1)C1=C(O)c2ccccc2C1=O
inactive: [7] 101 % of control | [8] 101 % of control | [9] 110 % of control

CCOC(=O)C/[N+]([O-])=C/c1ccccc1
inactive: dose: 12.5 mg/kg/injection, schedule: Q01DX009 (ip), vehicle: other 100 % of control | dose: 25.0 mg/kg/injection, schedule: Q01DX009 (ip), vehicle: other 98 % of control | dose: 50.0 mg/kg/injection, schedule: Q01DX009 (ip), vehicle: other 117 % of control | dose: 100.0 mg/kg/injection, schedule: Q01DX009 (ip), vehicle: other 100 % of control | dose: 200.0 mg/kg/injection, schedule: Q01DX009 (ip), vehicle: other 100 % of control

Cc1cc(=O)[nH]c2[nH][nH]c(=O)c12
inactive: [10] 93 % of control | [11] 93 % of control | [12] 105 % of control | dose: 200.0 mg/kg/injection, schedule: Q01DX009 (ip), vehicle: saline with Tween-80 90 % of control

C[C@]12C=CC(=O)C=C1CC[C@@H]1[C@@H]2[C@@H](O)C[C@@]2(C)[C@H]1CC[C@]2(O)C(=O)CF
inactive: dose: 6.25 mg/kg/injection, schedule: Q01DX009 (ip), vehicle: suspension in saline 100 % of control | dose: 12.5 mg/kg/injection, schedule: Q01DX009 (ip), vehicle: suspension in saline 93 % of control | dose: 25.0 mg/kg/injection, schedule: Q01DX009 (ip), vehicle: suspension in saline 102 % of control | [13] 96 % of control

Cc1ccc(N2C(=O)C(C)SC2=S)cc1Cl (configuration not stated)
inactive: dose: 12.5 mg/kg/injection, schedule: Q01DX009 (ip), vehicle: saline 100 % of control | [14] 100 % of control | [15] 101 % of control and 103 % of control | dose: 200.0 mg/kg/injection, schedule: Q01DX009 (ip), vehicle: saline 91 % of control

CCCCC/C=C\C/C=C\CCCCCCCC(=O)O
inactive: [1] 93 % of control | [2] 112 % of control | [3] 107 % of control | dose: 400.0 mg/kg/injection, schedule: Q01DX009 (ip), vehicle: Klucel (hydroxypropylcellulose) (HPC) 101 % of control

CC(C)OC(CCCl)c1ccc(Cl)cc1 (configuration not stated)
inactive: dose: 100.0 mg/kg/injection, schedule: Q04DX003 (ip), vehicle: saline with Tween-80 109 % of control | dose: 200.0 mg/kg/injection, schedule: Q04DX003 (ip), vehicle: saline with Tween-80 100 % of control

C/C=C1/CN2CCC34c5ccccc5N(C)C23C(O)CC1C4(CO)C(=O)OC (configuration not stated)
inactive: dose: 13.75 mg/kg/injection, schedule: Q01DX005 (ip), vehicle: saline + Tween-80 + alcohol 106 % of control | dose: 27.5 mg/kg/injection, schedule: Q01DX005 (ip), vehicle: saline + Tween-80 + alcohol 102 % of control | dose: 55.0 mg/kg/injection, schedule: Q01DX005 (ip), vehicle: saline + Tween-80 + alcohol 110 % of control | dose: 110.0 mg/kg/injection, schedule: Q01DX005 (ip), vehicle: saline + Tween-80 + alcohol 100 % of control

O=S(=O)(/N=C1/C=CC=CC1=C(N1CCOCC1)N1CCOCC1)c1ccccc1
inactive: dose: 50.0 mg/kg/injection, schedule: Q04DX003 (ip), vehicle: saline 104 % of control | dose: 100.0 mg/kg/injection, schedule: Q04DX003 (ip), vehicle: saline 111 % of control | dose: 200.0 mg/kg/injection, schedule: Q04DX003 (ip), vehicle: saline 105 % of control

O=C1C=C(c2ccccc2)CC1
inactive: [10] 88 % of control | [11] 100 % of control | [12] 111 % of control

CCC/C(=N\NC(=S)N1CCN(c2ccccn2)CC1)c1ccccn1
inactive: dose: 6.25 mg/kg/injection, schedule: Q01DX005 (ip), vehicle: saline with Tween-80 102 % of control and 104 % of control | dose: 12.5 mg/kg/injection, schedule: Q01DX005 (ip), vehicle: saline with Tween-80 107 % of control and 110 % of control

CN=C(c1ccc(NC(=O)c2ccc(C(=O)Nc3ccc(C(=NC)N4CCOCC4)cc3)cc2)cc1)N1CCOCC1
inactive: dose: 6.25 mg/kg/injection, schedule: Q01DX005 (ip), vehicle: Klucel (hydroxypropylcellulose) (HPC) 105 % of control | dose: 12.5 mg/kg/injection, schedule: Q01DX005 (ip), vehicle: Klucel (hydroxypropylcellulose) (HPC) 101 % of control

CSc1nc2ccc(NC(C)=O)cc2s1
inactive: dose: 12.5 mg/kg/injection, schedule: Q01DX009 (ip), vehicle: Klucel (hydroxypropylcellulose) (HPC) 111 % of control | dose: 25.0 mg/kg/injection, schedule: Q01DX009 (ip), vehicle: Klucel (hydroxypropylcellulose) (HPC) 107 % of control | [1] 102 % of control and 87 % of control | [3] 90 % of control

COc1ccc(/C=C/Cc2cc3c(cc2OC(C)=O)OCO3)cc1
inactive: [4] 98 % of control | [5] 101 % of control | [6] 93 % of control

CCOC(=O)CCCCCOC1CCCCO1 (configuration not stated)
inactive: [4] 98 % of control | [5] 97 % of control | [6] 103 % of control

C=C1C(=O)C23CC1CCC2C12COC(OC(=O)CCCCCCCCCCC)C1C(C)(C)C(O)CC2OC3=O (configuration not stated)
inactive: dose: 7.5 mg/kg/injection, schedule: Q01DX009 (ip), vehicle: saline with Tween-80 103 % of control | dose: 15.0 mg/kg/injection, schedule: Q01DX009 (ip), vehicle: saline with Tween-80 95 % of control | dose: 30.0 mg/kg/injection, schedule: Q01DX009 (ip), vehicle: saline with Tween-80 103 % of control | dose: 60.0 mg/kg/injection, schedule: Q01DX009 (ip), vehicle: saline with Tween-80 103 % of control

CCCCc1noc(N)c1SCC
inactive: dose: 50.0 mg/kg/injection, schedule: Q01DX005 (ip), vehicle: saline with Tween-80 105 % of control | dose: 100.0 mg/kg/injection, schedule: Q01DX005 (ip), vehicle: saline with Tween-80 103 % of control | dose: 200.0 mg/kg/injection, schedule: Q01DX005 (ip), vehicle: saline with Tween-80 107 % of control

Cc1cc(Br)ccc1N1C(=O)CC(Sc2ccccc2N)C1=O (configuration not stated)
inactive: [7] 88 % of control | [8] 95 % of control | [9] 100 % of control

c1ccc2sc(SSN3CCOCC3)nc2c1
inactive: [13] 97 % of control | dose: 100.0 mg/kg/injection, schedule: Q01DX009 (ip), vehicle: suspension in saline 106 % of control | dose: 200.0 mg/kg/injection, schedule: Q01DX009 (ip), vehicle: suspension in saline 95 % of control | dose: 400.0 mg/kg/injection, schedule: Q01DX009 (ip), vehicle: suspension in saline 90 % of control

CC(O)CNC1CCCCC1 (configuration not stated)
inactive: [10] 100 % of control | [11] 100 % of control | [12] 100 % of control

C=C1CC2(OC1=O)C(=O)N(C)c1ccc(I)cc12 (configuration not stated)
inactive: [14] 116 % of control | [15] 87 % of control

CC12CC(OC(=O)[C@]1(C)O)[C@@H]([C@]1(O)CC[C@H]3[C@@H]4C[C@H]5O[C@]56[C@@H](O)C=CC(=O)[C@]6(C)[C@H]4CC[C@@]31C)C2 (some centres not stated)
inactive: dose: 2.0 mg/kg/injection, schedule: Q01DX009 (ip), vehicle: saline + alcohol 100 % of control | dose: 4.0 mg/kg/injection, schedule: Q01DX005 (ip), vehicle: saline + alcohol 108 % of control and 120 % of control | dose: 4.0 mg/kg/injection, schedule: Q01DX009 (ip), vehicle: saline + alcohol 105 % of control | dose: 8.0 mg/kg/injection, schedule: Q01DX005 (ip), vehicle: saline + alcohol 110 % of control and 111 % of control | dose: 8.0 mg/kg/injection, schedule: Q01DX009 (ip), vehicle: saline + alcohol 96 % of control | dose: 16.0 mg/kg/injection, schedule: Q01DX005 (ip), vehicle: saline + alcohol 109 % of control and 111 % of control | dose: 16.0 mg/kg/injection, schedule: Q01DX009 (ip), vehicle: saline + alcohol 96 % of control | dose: 32.0 mg/kg/injection, schedule: Q01DX005 (ip), vehicle: saline + alcohol 107 % of control | dose: 32.0 mg/kg/injection, schedule: Q01DX009 (ip), vehicle: saline + alcohol 87 % of control
